From patent publication US10829489B2, “Bicyclic heterocyclic derivatives” (Merck Patent GmbH, priority 2015, dated 2020) come the findings set out here.

One experiment concerns the target human PDHK2 (12-407) (Homo sapiens (Human), UniProt Q15119). As to the kind of experiment: Isothermal titration calorimetry (ITC) binding. Particulars: 30° C. On the procedure: Isothermal Titration Calorimetry
ITC measurements were performed with a VP-ITC micro calorimeter (Microcal, LLC/GE Healthcare Bio-Sciences AB, Uppsala, Sweden). In general titrations were performed by titrating the protein (50 μM) to the test compound (5 μM) in 12 μl injections. All binding experiments were carried out at 30° C. In general the test compounds were diluted form DMSO stock solutions into the measurement buffer with a maximum final concentration of 1% DMSO. The measurement buffer was 20 mM HEPES, 135 mM KCl, 1 mM TCEP, 2 mM MgCl2, 15 mM NaH2PO4, pH 7.5. The human PDHK2 (12-407) was produced in E. coli as his-tagged protein and purified by affinity chromatography. The tag was removed by side specific proteolysis. Before titration the protein buffer was changed to the measurement buffer containing the same DMSO concentration as the test compound dilution. ITC data analysis was performed using Origin 7 calorimetry software from the same supplier. For most measurements a binding model of one binding site was assumed. According to the applied mathematical model it is possible to calculate the binding constant (KA), the observed binding enthalpy (ΔH^obs) as well as the stoichiometry (N) of the formed complex. Preceding analysis the raw data was corrected for the heats of dilution by extrapolating from the saturation value from the end of titration. In order to allow for direct comparison between the respective experimental series and protein preparations the protein concentration was corrected by referencing titrations to a well behaved standard inhibitor. The apparent stoichiometry values defined the fraction of binding competent protein and compensated for relative errors in protein concentration measurements. This corrected protein concentration was used to set up ITC experiment series with test compounds. Any deviations from ideal 1:1 stoichiometry observed here were attributed to errors in compound concentration. This nominal compound concentration was corrected as well to achieve 1:1 stoichiometry in the fit.
Background: In ITC the heat of successive injections is recorded.

The next experiment deals with PDHK2 (Homo sapiens (Human), UniProt Q15119). As to the kind of experiment: Biochemical activity testing of PDHK2: PDC inactivation assay. As to conditions: human rec PDHK2, PDC inactivation assay; read-out: IC50 PDHK2 (enzyme assay). The text has this: Biochemical Activity Testing of PDHK2: PDC Inactivation Assay
The biochemical activity assay for PDHK2 is based on the inactivation of PDC through phosphorylation by PDHK2. The assay is run in two steps: the enzymatic PDHK2 reaction in which isolated PDC is phosphorylated by PDHK2 with ATP as co-substrate and the PDC activity assay in which pyruvate and NAD are converted to acetyl-CoA and NADH. The PDC activity correlates to the increase in NADH and thereby is detectable directly via the increasing fluorescence signal (Exc 340 nm, Em 450 nm). Inhibition of PDHK2 results in a lower phosphorylation status and thereby a less decrease in activity of PDC and a stronger increase in NADH fluorescence signal.
The PDC inactivation assay is performed in Greiner 384-well microtiter plates and is used for high throughput screen. […] The first fluorescence measurement is performed on a Perkin Elmer Envision (Exc 340 nm, Em 450 nm). […] Afterwards a second fluorescence measurement is performed and the PDC activity is calculated by the difference between both measurements. […] The inhibitory values (IC50) were determined using either the program Symyx Assay Explorer® or Condosseo® from GeneData.

Experiment [1] relates to PDH-E1alpha (pSer300) in HEK293T cells. Description: Cellular immunofluorescence assay for compound activity (Anti-PDH-E1alpha pSer300). It is filed as cell-based. Particulars: Homo sapiens, HEK-293T, 5 hours incubation, read-out: IC50 (cell data). On the procedure: Cellular Assay for Determination of Compound Activities
Compound activities were determined in a cellular immunofluorescence assay. Human HEK293T cells were seeded into black 384-well plates with clear bottom and grown overnight.
Next day, test compounds were added to the wells and the plates incubated for 5 hours. Following this, cells were fixed with formaldehyde, permeabilised and blocked. The primary antibody, Anti-PDH-E1alpha (pSer300), AP1064 (Merck Millipore) was added and incubated overnight in the plate wells. Next, cells were washed and the secondary antibody, Alexa Fluor 488, goat anti-rabbit ab (A-11008, Invitrogen) was added together with Hoechst 33258 (H3569, Invitrogen) and incubated for 1 hour in the plate wells. Finally, cells were washed and the plates were measured on the laser scanning cytometer acumen hci (TTpLabtech).
The raw data were normalized against a pharmacological inhibitor control and dose response curves were generated by plotting the percent effect values using the software package Genedata screener (Genedata).

By Kd is commonly meant the constant that tells how readily two partners part at equilibrium. As usually defined, the IC50 is the concentration that inhibits the measured activity by half. In turn, `COc1ccc(-n2ncc3c2[C@H](C)CN(C(=O)[C@@](C)(O)C(F)(F)F)C3)cn1` [Compound A30, (R)-3,3,3-Trifluoro-2-hydroxy-1-[(R)-1-(6-methoxy-pyridin-3-yl)-7-methyl-1,4,6,7-tetrahydro-pyrazolo[4,3-c]pyridin-5-yl]-2-methyl-propan-1-one] gave a Kd on human PDHK2 (12-407) below 300 nM. Further, the IC50 (on PDHK2; in experiment [1]) was below 300 nM throughout.

Consider `COc1ccc(-n2ncc3c2[C@@H](C)CN(C(=O)[C@@](C)(O)C(F)(F)F)C3)cn1` [Compound A31, (R)-3,3,3-Trifluoro-2-hydroxy-1-[(S)-1-(6-methoxy-pyridin-3-yl)-7-methyl-1,4,6,7-tetrahydro-pyrazolo[4,3-c]pyridin-5-yl]-2-methyl-propan-1-one], for which the IC50 on PDHK2 is 3000 to 50000 nM.

`C[C@@](O)(C(=O)N1CCc2c(ncn2-c2ccc(F)cc2)C1)C(F)(F)F` [Compound A44, (R)-3,3,3-Trifluoro-1-[1-(4-fluoro-phenyl)-1,4,6,7-tetrahydro-imidazo[4,5-c]pyridin-5-yl]-2-hydroxy-2-methyl-propan-1-one]: the Kd at human PDHK2 (12-407) is below 300 nM.

In turn, `C[C@@](O)(C(=O)N1CCc2c(ncn2-c2ccc(Cl)cc2)C1)C(F)(F)F` [Compound A45, (R)-1-[1-(4-Chloro-phenyl)-1,4,6,7-tetrahydro-imidazo[4,5-c]pyridin-5-yl]-3,3,3-trifluoro-2-hydroxy-2-methyl-propan-1-one] displayed a Kd at human PDHK2 (12-407) below 300 nM.
